The values below come from article PMC8481536, “Wells–Dawson phosphotungstates as mushroom tyrosinase inhibitors: a speciation study” (Scientific Reports, 2021).

Data set [1] is described as follows: Charge density (q/m, charges per addenda metal ion) of POT anions. It is filed as physicochemical. Conditions: for Charge density q/m of the anion: Wells–Dawson POTs and their products; for Charge density q/m of POT product Hx[α2-P2W17O61](10−x)−, x = 3 / Charge density q/m of POT product Hx[α2-P2W17O61](10−x)−, x = 4: product formed from the educt at pH 6.8. The text has this: The charge density of POMs, expressed in number of charges (q) per addenda metal ions (m), is a criterion to characterize the chaotropic behavior of POMs (Table S6)[49]–[53]. […] The activity of [P2W18]^6−, [P2W17]^10− and [P2W15]^12− solutions correlates with the amount of the dominant monolacunary anion [α2-P^V2W^VI17O61]^10− in Na-citrate buffer at pH 6.8 (Fig. 3, Scheme S1). For the unprotonated form of the active monolacunary Wells–Dawson anion [α2-P^V2W^VI17O61]^10− the q/m ratio is 0.59 (Table 2), however, the protonation of this anion in neutral solutions has previously been shown by electrochemical analysis in combination with theoretical calculations[47],[55]. For POMs the proton affinity difference between the terminal and bridging oxygen is around 11 kcal mol^−1[56], proving that the four oxygen atoms surrounding the lacuna are much more basic than the bridging and terminal O atoms (Fig. 1B), and thus prone to protonation. Electrospray-ionization mass spectrometry (ESI–MS) has already been successfully used for the protonation states assignment of Wells–Dawson POTs containing different heteroatoms. Consequently, ESI–MS has been applied to investigate the protonation state of monolacunary [α2-P^V2W^VI17O61]^10−. When recording ESI–MS for POMs in Na-citrate buffer, the relative intensity of citrate anion signals is almost 100%, suppressing POM signals. […] The spectra recorded in both solvents show signals for NaH4[α2-P^V2W^VI17O61]^5- at 838.0 and NaKH3[α2-P^V2W^VI17O61]^5- at 845.6 m/z, while species with lower protonation states have not been detected (Fig. S19). Therefore, the monolacunary anion [α2-P^V2W^VI17O61]^10− is present as the three-fold protonated anion H3[α2-P^V2W^VI17O61]^7- with a charge density of 0.41 and the four-fold protonated anion H4[α2-P^V2W^VI17O61]^6− with a charge density of 0.35. The predominant species in [P2W12]^12− is the wheel-shaped [P^V8W^VI48O184]^40− (23%), which can be protonated to H16[P^V8W^VI48O184]^24−[58] q/m = 0.5. Due to the compositional complexity of the hexalacunary anion it is impossible to accurately correlate its activity with the POTs’ charge density.
10 Summary of POT charge densities of Keggin and Wells-Dawson POTs
In order to facilitate comparison of the inhibitory capacities of the Keggin and Wells-Dawson POT samples tested in our laboratory against AbPPO4 and to obtain a structure-activity correlation, the charge densities (anionic charge per W addenda atom) of the species present […]
the charge densities, the following stability windows for POTs can be identified:
1) intact closed clusters: q/m ≈ 0.33 – 0.50
Structures with higher charge densities were not analyzed. Structures with a q/m value lower than 0.33 are prone to hydrolysis or reduction under suitable conditions, both leading to an increase in charge density.
2) lacunary clusters: q/m = 0.35 – 0.45
Structures with lower charge densities were not analyzed. Structures with a q/m value higher than 0.45 achieve stabilization by taking up protons for charge compensation. However, too […]
these pathways result in a decrease in charge density.
Overall, the preferred stable charge densities at neutral pH of both the intact and lacunary POTs […]
for intact clusters. This seems to be an intrinsic POT property as a combined result of 1) the reactivity of lacunary oxygen sites and 2) the hydrolytic susceptibility to hydroxide anions in aqueous solution in competition with electrostatic repulsion with the anionic POT charge. […]
metal centers in their oxygen-bound environment.
The scenario is different when looking at the POT interaction with the enzyme AbPPO4. Among […]
values show a clear correlation to the q/m values, with the lowest charge density corresponding to the highest protein affinity. But going to the larger Wells-Dawson archetype, comparing the active lacunary species H [PVWVI O ]4- (Keggin) and H [α -PV WVI O ](10-x)- (x = 3 or 4) (Wells- […]
charge densities. As stated in the main text, the basic inhibition effect shown by the Wells- […]

Another data set relates to Ca^2+-ATPase. Set-up: method as in PMID 29313547. Conditions: cited from earlier work.
Another data set concerns aquaporin-3. Set-up: method as in PMID 32252345. The settings on record: cited from earlier work.
In the next data set the test system is P-type ATPase. Set-up: method as in PMID 29313547. Conditions: cited from earlier work.

For “K10[α2-P^V2W^VI17O61]·20H2O [[P2W17]^10−]”, in data set [1], the “Charge density q/m of the anion” value was found to be 0.59; the “Charge density q/m of POT product Hx[α2-P2W17O61](10−x)−, x = 3” value (shortened to “Charge density q/m … x = 3”) was 0.41; the “Charge density q/m of POT product Hx[α2-P2W17O61](10−x)−, x = 4” value (from here on “Charge density q/m … x = 4”) amounted to 0.35.

For the substance K12[P^V2W^VI15O56]·24H2O [[P2W15]^12−], the “Charge density q/m of the anion” value in data set [1] (listed as [PV2WVI15O56]12-) was found to be 0.80. Moreover, the “Charge density q/m of the anion” value in data set [1] (listed as [P^V2W^VI15O56]^12−) is 0.8. Besides, in data set [1], the “Charge density q/m … x = 3” value amounted to 0.41 and the “Charge density q/m … x = 4” value is given as 0.35.

Turning to “(NH4)12[H2P^V2W^VI12O48]·24H2O [[P2W12]^12−]”, the “Inhibition of Ca2+-ATPase” value in the data set with Ca^2+-ATPase is on record as “inhibited”. Also, the “Inhibition of aquaporin-3” value in the data set on aquaporin-3 is on record as “inhibited”. In addition, the “Charge density q/m of the anion” value worked out at 1.00 in data set [1] (listed as H2[PV2WVI12O48]12-) and 1 in data set [1] (listed as H2[P^V2W^VI12O48]^12−). Also, the “Inhibition of P-type ATPase” value with P-type ATPase is “inhibited”.

Take “K6[α/β-P^V2W^VI18O62]·14H2O [[P2W18]^6−]”: the “Inhibition of Ca2+-ATPase” value in the data set on Ca^2+-ATPase is reported as “inhibited”. The “Inhibition of aquaporin-3” value in the data set on aquaporin-3 was “inhibited”. In data set [1], the “Charge density q/m of the anion” value is 0.33; the “Charge density q/m … x = 3” value came out at 0.41; the “Charge density q/m … x = 4” value is given as 0.35. Besides, the “Inhibition of P-type ATPase” value in the data set on P-type ATPase is “inhibited”.
